# Test results reported in US20020039780A1, “Salicyclic acid inducible genes and promoters” (priority 1998, published 2002).
# Assays:
# Type in all cases: cell-based
# C6-2 = assay: Northern analysis of mRNA accumulation in cultured tobacco cells; conditions: 0.1 and 1 mM, approximately 2.5 h
# Protocol: (§1) FIG. 2. Time course of SA-induced gene expression. Northern analysis of representative differential display genes following treatment of cultured tobacco cells with SA for the indicated time (in hours, except lanes 2-4, which refer to 10, 20, and 30 min.). Twenty micrograms of total RNA was loaded per lane. Blots were hybridized with ddPCR fragments indicated at right or with the β-ATPase gene as a loading control probe. Autoradiogram exposure times were optimized for each gene. The signal for C18-1 was enhanced by using the full length cDNA as probe. Labels on left indicate response class.
# (§2) FIG. 4. Specificity of induction among SA analogs and other signalling compounds. Northern analysis of representative differential display genes following treatment of tobacco cells with 100 μM or 1 mM (left and right side of triangles, respectively) of the following chemicals for 2-2.5 hr: salicylic acid (SA, lanes 4 and 5), acetylSA (ASA, lanes 6 and 7), benzoic acid (BA, lanes 8 and 9), 4-hydroxybenzoic (4HBA, lanes 10 and 11), thiamine (thia, lanes 12 and 13), methyljasmonate (MJ, lanes 14 and 15), abscisic acid (ABA, lanes 16 and 17), or 2,4-dichlorophenoxyacetic acid (2,4-D, lanes 18 and 19). Control treatments are H2O (H, lane 1), 1% ethanol (E, solvent concentration in MJ treatments, lane 2), or 1% DMSO (D, solvent concentration in 2,4D treatments, lane 3). Blots were hybridized with ddPCR fragments indicated at right or with the β-ATPase geneas a loading control probe. Autoradiogram exposure times were optimized for each gene. The signal for C18-1 was enhanced by using the full length cDNA as probe. Labels on left indicate response class.
# (§3) Differential display technology (Liang, P. and Pardee, A. B., Science 257: 967-971, 1992) was used to identify genes activated in the presence of SA, CHX and both. Therefore the absence or presence of SA, induction at 3 timepoints of SA-treatment, 2 different concentrations of SA and the effect of addition of CHX were measured. Seven treatments in total were performed. Treatment of tobacco BY-2 suspension cells and leaves and differential display PCR reactions were performed as described (Horvath and Chua (1996), Plant Mol. Biol. 31, 1061-1072).
# (§4) The specificity for induction by SA was tested by treating tobacco cells with a range of SA analogs and plant signalling compounds at 0.1 and 1 mM for approximately 2.5 h. […] Among the SA-analogs, acetyl-SA (ASA, aspirin), benzoic acid (BA) and 4-hydroxybenzoic acid (4HBA), responses generally reflected the ability of the analog to substitute for SA in other cellular responses (Yalpani, N. et al., Plant Cell 3: 809-818, 1991, Yang, Y. and Klessig, D. F., Proc. Natl. Acad. Sci. 93, 14972-14977, 1996). […] Several genes, including those for proteinase inhibitors and lipoxygenase (Hildmann, T. et al., Plant Cell 4: 1157-1170, 1992; Melan, M. A. et al., Plant Physiol. 101: 441-450, 1993; Xu, D. et al., Plant Mol. Biol. 22: 573-588, 1993) are known to be under dual regulation by MJ and ABA. A similar mode of regulation may be in effect with C14-1b. the auxin 2,4-D induced several genes including C18-1/EREBP1 and C6-2.
# C18-1/EREBP1 = assay: as above; conditions: 0.1 and 1 mM, approximately 2.5 h
# Protocol: as §1, with “The signal for C18-1 was enhanced by using the full length cDNA as probe.” left out
# as §2, with “The signal for C18-1 was enhanced by using the full length cDNA as probe.” left out
# (§5) FIG. 5. Dose response of C18-1 and G8-1 to a range of chemicals. Northern analysis of tobacco cell cultures with eight concentrations of SA, ASA, BA, 4HBA, Thia, MJ, ABA, 2,4-D, or H2O for 2-2.5 hr. Concentrations were 0.1, 1, 3, 10, 30, 100, 300 μM or […], as indicated.
# (§6) FIG. 6. […] Graphic representation of mRNA accumulation of G8-1 ( ), C18se -1 (♦), and IEGT (o) in response to a 2-2.5 hr incubation of cultured tobacco cells with a range of SA concentrations. RNA gel blots were quantitated by phosphorimaging analysis and normalized relative to the β-ATPase gene loading control (not shown).
# as §3
# The kinetics of induction were examined in detail through time course experiments for representative clones of each class (FIG. 2).
# (§7) The specificity for induction by SA was tested by treating tobacco cells with a range of SA analogs and plant signalling compounds at 0.1 and 1 mM for approximately 2.5 h. […] Several genes, including those for proteinase inhibitors and lipoxygenase (Hildmann, T. et al., Plant Cell 4: 1157-1170, 1992; Melan, M. A. et al., Plant Physiol. 101: 441-450, 1993; Xu, D. et al., Plant Mol. Biol. 22: 573-588, 1993) are known to be under dual regulation by MJ and ABA.
# A dose-response curve was made for SA. Therefore tobacco cells were treated with SA in a range of concentrations from 0.1 μM to 2 mM.
# [1] = tested on: early SA-induced genes identified by differential display; assay: Northern analysis of differential display genes in cultured tobacco cells; conditions: 0.1 and 1 mM, approximately 2.5 h
# Protocol: (§8) FIG. 1. […] Northern analysis of genes identified by differential display. Gel-purified DNA fragments produced by ddPCR were either used directly for random-primed labeling and probing of Northern filters (e.g. C7-1, C6-1, and G9-2) or first subcloned and released by restriction digest. Each lane contains 1 μg of poly(A) mRNA from cultured tobacco cells treated with (1) H2O, 4 hr; (2) 200 μM SA, 4 hr; (3) 71 μM CHX, 5 hr; (4) 71 μM CHX, 5 hr plus 200 μM SA after 1 hr (4 hr total); (5) 20 μM SA, 2 hr; (7) 200 μM SA, 8 hr.
# as §2, with “The signal for C18-1 was enhanced by using the full length cDNA as probe.” left out
# as §3, §7
# C14-1b = assay: Northern analysis of mRNA accumulation in cultured tobacco cells; conditions: 0.1 and 1 mM, approximately 2.5 h
# Protocol: as §1, §2, §3, §4
# G8-1 = assay: as above; conditions: for G8-1 induction at 0.1 mM versus 1 mM: 0.1 and 1 mM, approximately 2.5 h
# Protocol: as §8
# as §1, with “The signal for C18-1 was enhanced by using the full length cDNA as probe.” left out
# as §2, with “The signal for C18-1 was enhanced by using the full length cDNA as probe.” left out
# as §5, §6, §3
# The specificity for induction by SA was tested by treating tobacco cells with a range of SA analogs and plant signalling compounds at 0.1 and 1 mM for approximately 2.5 h.
# G3-2 = assay: as above; conditions: 0.1 and 1 mM, approximately 2.5 h
# Protocol: (§9) FIG. 1. Four classes of SA-induced early genes. Northern analysis of genes identified by differential display. Gel-purified DNA fragments produced by ddPCR were either used directly for random-primed labeling and probing of Northern filters (e.g. C7-1, C6-1, and G9-2) or first subcloned and released by restriction digest. Each lane contains 1 μg of poly(A) mRNA from cultured tobacco cells treated with (1) H2O, 4 hr; (2) 200 μM SA, 4 hr; (3) 71 μM CHX, 5 hr; (4) 71 μM CHX, 5 hr plus 200 μM SA after 1 hr (4 hr total); (5) 20 μM SA, 2 hr; (7) 200 μM SA, 8 hr. One blot was sequentially hybridized with the G1-1 fragment and the β-ATPase gene as a loading control probe. response classes (I-IV) are indicated on the left of the autoradiograms.
# as §1, §2, §3, §4
# class II genes = assay: Northern analysis of poly(A) mRNA from treated tobacco cells; conditions: SA at 2, 4, 8 h; 71 μM CHX 5 hrs; CHX + 200 μM SA
# Protocol: as §9, §3
# (§10) Fiftytwo were recovered for testing on poly(A)+Northern blots loaded with mRNA derived from cells from each of the treatments.
# Class I genes = assay: as above; conditions: SA at 2, 4 or 8 h; 71 μM CHX 5 hrs; CHX + 200 μM SA
# Protocol: as §9, §3, §10
# [2] = tested on: class IV genes (G3-2 and C14-1b); assay: as above
# Protocol: as §9, §3, §10
# [3] = 71 μM CHX 5 hrs + 200 μM SA after 1 hr
# [4] = SA at 2, 4, 8 h, 71 μM CHX 5 hrs
structure (smiles),measurement,setting,value
"O=C(O)COc1ccc(Cl)cc1Cl [2,4-D, 2,4-dichlorophenoxyacetic acid]",induction of C6-2,C6-2,induced
same,induction of C18-1/EREBP1,C18-1/EREBP1,induced
"O=C(O)c1ccc(O)cc1 [4HBA, 4-hydroxybenzoic acid]",induction of the genes tested,[1],failed to induce all genes but C6-2
"CC1=CC(=O)CC(C)(C)[C@@]1(O)/C=C/C(C)=C\C(=O)O [ABA, abscisic acid]",induction of C14-1b,C14-1b,could be induced
"CC(=O)Oc1ccccc1C(=O)O [ASA, acetyl-SA]",C6-2 induction at 0.1 mM versus 1 mM,C6-2,greater induction at 1mM
same,G8-1 induction at 0.1 mM versus 1 mM,G8-1,equal or greater induction at 0.1 mM versus 1 mM
same,C18-1/EREBP1 induction at 0.1 mM versus 1 mM,C18-1/EREBP1,greater induction at 1mM
same,induction of the genes tested,[1],induced all genes to similar levels as SA
same,G3-2 induction at 0.1 mM versus 1 mM,G3-2,equal or greater induction at 0.1 mM versus 1 mM
"O=C(O)c1ccccc1 [BA, benzoic acid]",C6-2 induction at 0.1 mM versus 1 mM,C6-2,greater induction at 1mM
same,G8-1 induction at 0.1 mM versus 1 mM,G8-1,equal or greater induction at 0.1 mM versus 1 mM
same,C18-1/EREBP1 induction at 0.1 mM versus 1 mM,C18-1/EREBP1,greater induction at 1mM
same,induction of the genes tested,[1],also induced the expression
same,G3-2 induction at 0.1 mM versus 1 mM,G3-2,equal or greater induction at 0.1 mM versus 1 mM
"C[C@@H]1C[C@@H]([C@H](O)CC2CC(=O)NC(=O)C2)C(=O)[C@@H](C)C1 [CHX, cycloheximide]",mRNA induction of class II genes,class II genes,also induced expression
same,mRNA induction of Class I genes,Class I genes,some induction
same,effect of CHX on induction of class IV genes by SA,[2]; [3],blocked the induction
same,mRNA induction of class IV genes,[2]; [4],fail to induce
same,effect of presence of CHX on induction of G8-1 by SA,G8-1; [3],did not significantly alter
same,mRNA induction of G8-1 (class III),G8-1; [4],did not induce
"CC/C=C\CC1C(=O)CCC1CC(=O)OC (centres unmarked) [MJ, Methyljasmonate]",effectiveness as inducer of C14-1b among compounds tested,C14-1b,most effective inducer
same,induction of C14-1b,C14-1b,able to induce expression
same,effectiveness as inducer of C18-1/EREBP1 among compounds tested,C18-1/EREBP1,most effective inducer
same,induction of C18-1/EREBP1,C18-1/EREBP1,able to induce expression
same,induction of G3-2,G3-2,able to induce expression
Cc1ncc(C[n+]2csc(CCO)c2C)c(N)n1 [thiamine],induction of the genes tested,[1],did not produce a response from any of the genes tested
